Numbers after ± are expanded uncertainties.
Assay: activity coefficient (dimensionless); of the first substance listed, at infinite dilution; xn = mol fraction of the nth substance listed
Conditions: 101 kPa, Liquid, Chromatography, x1 = 0

SMILES	activity coefficient (318.15 K)	activity coefficient (328.15 K)	activity coefficient (338.15 K)	activity coefficient (348.15 K)	activity coefficient (358.15 K)	activity coefficient (368.15 K)
Cc1ccccc1C [1,2-dimethylbenzene] + CCCC[n+]1ccc(C)cc1.N#CC(=C=[N-])C#N	1.4 ± 0.09	1.45 ± 0.1	1.49 ± 0.1	1.56 ± 0.1	1.61 ± 0.11	1.66 ± 0.11
Cc1cccc(C)c1 [1,3-dimethylbenzene] + CCCC[n+]1ccc(C)cc1.N#CC(=C=[N-])C#N		1.71 ± 0.11	1.76 ± 0.12	1.82 ± 0.12	1.88 ± 0.13	1.94 ± 0.13
Cc1ccc(C)cc1 [1,4-dimethylbenzene] + CCCC[n+]1ccc(C)cc1.N#CC(=C=[N-])C#N		1.66 ± 0.11	1.71 ± 0.11	1.79 ± 0.12	1.84 ± 0.12	1.9 ± 0.13
C1COCCO1 [1,4-dioxane] + CCCC[n+]1ccc(C)cc1.N#CC(=C=[N-])C#N	0.573 ± 0.041	0.601 ± 0.042	0.624 ± 0.043	0.656 ± 0.045	0.68 ± 0.046	0.708 ± 0.047
C#CCCCCC [1-heptyne] + CCCC[n+]1ccc(C)cc1.N#CC(=C=[N-])C#N	4.09 ± 0.28	4.15 ± 0.28	4.22 ± 0.29	4.29 ± 0.29	4.34 ± 0.3	4.43 ± 0.3
C#CCCCC [1-hexyne] + CCCC[n+]1ccc(C)cc1.N#CC(=C=[N-])C#N	2.98 ± 0.2	3.04 ± 0.21	3.1 ± 0.21	3.17 ± 0.22	3.25 ± 0.22	3.3 ± 0.22
CCC[N+](=O)[O-] [1-nitropropane] + CCCC[n+]1ccc(C)cc1.N#CC(=C=[N-])C#N		0.748 ± 0.049	0.756 ± 0.05	0.769 ± 0.05	0.783 ± 0.051	0.792 ± 0.052
CC(C)CO [2-methyl-1-propanol] + CCCC[n+]1ccc(C)cc1.N#CC(=C=[N-])C#N	1.33 ± 0.086	1.23 ± 0.079	1.16 ± 0.074	1.11 ± 0.07	1.06 ± 0.067	1.02 ± 0.064
CC(C)=O [acetone] + CCCC[n+]1ccc(C)cc1.N#CC(=C=[N-])C#N	0.598 ± 0.042	0.617 ± 0.043	0.634 ± 0.044	0.656 ± 0.045	0.672 ± 0.046	0.686 ± 0.046
CC#N [acetonitrile] + CCCC[n+]1ccc(C)cc1.N#CC(=C=[N-])C#N	0.584 ± 0.041	0.59 ± 0.04	0.593 ± 0.042	0.599 ± 0.042	0.604 ± 0.042	0.613 ± 0.043
c1ccccc1 [benzene] + CCCC[n+]1ccc(C)cc1.N#CC(=C=[N-])C#N	0.889 ± 0.057	0.916 ± 0.058	0.937 ± 0.059	0.976 ± 0.061	1 ± 0.06	1.02 ± 0.06
CCCCO [butan-1-ol] + CCCC[n+]1ccc(C)cc1.N#CC(=C=[N-])C#N	1.31 ± 0.09	1.23 ± 0.08	1.17 ± 0.07	1.13 ± 0.07	1.09 ± 0.07	1.05 ± 0.07
C1CCCCCC1 [cycloheptane] + CCCC[n+]1ccc(C)cc1.N#CC(=C=[N-])C#N	12.8 ± 0.9	12.1 ± 0.8	11.7 ± 0.8	11.1 ± 0.8	10.6 ± 0.7	10.3 ± 0.7
C1CCCCC1 [cyclohexane] + CCCC[n+]1ccc(C)cc1.N#CC(=C=[N-])C#N	11.1 ± 0.8	10.5 ± 0.7	10 ± 0.7	9.57 ± 0.65	9.07 ± 0.62	8.65 ± 0.59
CCCCCCCCCC [decane] + CCCC[n+]1ccc(C)cc1.N#CC(=C=[N-])C#N	90.4 ± 6.2	83 ± 5.7	76.5 ± 5.2	72.6 ± 5	67.7 ± 4.6	62.8 ± 4.3
CCO [ethanol] + CCCC[n+]1ccc(C)cc1.N#CC(=C=[N-])C#N	0.917 ± 0.058	0.876 ± 0.056	0.838 ± 0.054	0.812 ± 0.053	0.784 ± 0.051	0.755 ± 0.05
CCOC(C)=O [ethyl acetate] + CCCC[n+]1ccc(C)cc1.N#CC(=C=[N-])C#N	1.3 ± 0.08	1.33 ± 0.09	1.36 ± 0.09	1.4 ± 0.09	1.42 ± 0.09	1.46 ± 0.1
CCc1ccccc1 [ethylbenzene] + CCCC[n+]1ccc(C)cc1.N#CC(=C=[N-])C#N	1.78 ± 0.12	1.83 ± 0.12	1.87 ± 0.13	1.93 ± 0.13	1.98 ± 0.13	2.01 ± 0.14

SMILES	activity coefficient (318.15 K)	activity coefficient (328.15 K)	activity coefficient (338.15 K)	activity coefficient (348.15 K)	activity coefficient (358.15 K)	activity coefficient (368.15 K)
CCCCCCC [heptane] + CCCC[n+]1ccc(C)cc1.N#CC(=C=[N-])C#N	33.7 ± 2.3	31.3 ± 2.1	29.7 ± 2	27.6 ± 1.9	25.8 ± 1.8	24.7 ± 1.7
C=CCCCC [hex-1-ene] + CCCC[n+]1ccc(C)cc1.N#CC(=C=[N-])C#N	11.1 ± 0.8	10.5 ± 0.7	10.2 ± 0.7	9.72 ± 0.66	9.17 ± 0.63	8.75 ± 0.6
CCCCCC [hexane] + CCCC[n+]1ccc(C)cc1.N#CC(=C=[N-])C#N	24.3 ± 1.7	23 ± 1.6	22.1 ± 1.5	20.8 ± 1.4	20 ± 1.4	19.1 ± 1.3
CO [methanol] + CCCC[n+]1ccc(C)cc1.N#CC(=C=[N-])C#N	0.663 ± 0.045	0.644 ± 0.044	0.625 ± 0.043	0.612 ± 0.043	0.593 ± 0.042	0.58 ± 0.041
CC1CCCCC1 [methylcyclohexane] + CCCC[n+]1ccc(C)cc1.N#CC(=C=[N-])C#N	15.8 ± 1.1	14.8 ± 1	13.9 ± 1	13.4 ± 0.9	12.7 ± 0.9	12.1 ± 0.8
CCCCCCCCC [nonane] + CCCC[n+]1ccc(C)cc1.N#CC(=C=[N-])C#N	65.1 ± 4.5	59.1 ± 4	55.7 ± 3.8	51.2 ± 3.5	47.6 ± 3.3	45.8 ± 3.1
C=CCCCCCC [oct-1-ene] + CCCC[n+]1ccc(C)cc1.N#CC(=C=[N-])C#N	21.3 ± 1.5	20.3 ± 1.4	19.7 ± 1.3	18.9 ± 1.3	18.3 ± 1.3	17.8 ± 1.2
CCCCCCCC [octane] + CCCC[n+]1ccc(C)cc1.N#CC(=C=[N-])C#N	46.4 ± 3.2	43.2 ± 3	41.1 ± 2.8	38.4 ± 2.6	36.3 ± 2.5	34.6 ± 2.4
CCCC(C)=O [pentan-2-one] + CCCC[n+]1ccc(C)cc1.N#CC(=C=[N-])C#N	0.955 ± 0.06	0.986 ± 0.062	1.01 ± 0.06	1.05 ± 0.07	1.07 ± 0.07	1.1 ± 0.07
CCC(=O)CC [pentan-3-one] + CCCC[n+]1ccc(C)cc1.N#CC(=C=[N-])C#N	0.942 ± 0.059	0.976 ± 0.061	1.01 ± 0.06	1.05 ± 0.07	1.07 ± 0.07	1.11 ± 0.07
CCCO [propan-1-ol] + CCCC[n+]1ccc(C)cc1.N#CC(=C=[N-])C#N	1.06 ± 0.07	1.01 ± 0.06	0.965 ± 0.061	0.936 ± 0.059	0.906 ± 0.057	0.872 ± 0.056
CC(C)O [propan-2-ol] + CCCC[n+]1ccc(C)cc1.N#CC(=C=[N-])C#N	1.15 ± 0.07	1.09 ± 0.07	1.04 ± 0.07	1 ± 0.06	0.961 ± 0.06	0.928 ± 0.059
c1ccncc1 [pyridine] + CCCC[n+]1ccc(C)cc1.N#CC(=C=[N-])C#N		0.498 ± 0.038	0.51 ± 0.038	0.528 ± 0.039	0.542 ± 0.04	0.557 ± 0.04
C1CCOC1 [tetrahydrofuran] + CCCC[n+]1ccc(C)cc1.N#CC(=C=[N-])C#N	0.779 ± 0.051	0.807 ± 0.052	0.827 ± 0.053	0.856 ± 0.055	0.872 ± 0.056	0.907 ± 0.058
c1ccsc1 [thiophene] + CCCC[n+]1ccc(C)cc1.N#CC(=C=[N-])C#N	0.636 ± 0.044	0.658 ± 0.045	0.678 ± 0.046	0.704 ± 0.047	0.733 ± 0.049	0.748 ± 0.049
Cc1ccccc1 [toluene] + CCCC[n+]1ccc(C)cc1.N#CC(=C=[N-])C#N	1.19 ± 0.08	1.23 ± 0.08	1.27 ± 0.08	1.32 ± 0.09	1.36 ± 0.09	1.4 ± 0.09
O [water] + CCCC[n+]1ccc(C)cc1.N#CC(=C=[N-])C#N	0.971 ± 0.061	0.926 ± 0.059	0.887 ± 0.056	0.859 ± 0.055	0.826 ± 0.053	0.796 ± 0.052

Source: the NIST ThermoML archive (doi:10.1016/j.jct.2014.12.027)
